Values quoted from earlier work in US20210181182A1, “METHOD FOR IDENTIFICATION OF PERTURBAGENS OF PARTICULAR BIOLOGICAL PROCESSES AND CELL SYSTEMS WITHIN LIVING CELLS” (priority 2018, published 2021).
Counter-ions that a name gives are not always drawn. Marks after values point to notes of the source that are not given here.

Test system: mitochondria membrane potential
Details: HepG2, 1-hour incubation at concentrations below 60 μM; cited from earlier work

Row | SMILES | MMP assay hitCall
1 | C[C@@]1(c2ccc(Oc3ccccc3)cc2)OC(=O)N(Nc2ccccc2)C1=O (racemic) [Famoxadone] | 1
2 | COC(C=C(C)CCC=C(C)C)OC [1,1-Dimethoxy-3,7-dimethylocta-2,6-diene] | 0
3 | CCC(=O)C=Cc1ccc(OC)cc1 [1-(4-Methoxyphenyl)-1-pentene-3-one] | 0
4 | Fc1cccc(Cl)c1CCl [1-Chloro-2-(chloromethyl)-3-fluorobenzene] | 0
5 | CC(C)(C)C(=O)CCl [1-Chloro-3,3-dimethyl-butan-2-one] | 0
6 | CCCCCCCCCCCCN1CCCC1=O [1-Dodecyl-2-pyrrolidinone] | 0
7 | C=CC(O)CCCCC (centres unmarked) [1-Octen-3-ol] | 0
8 | c1cc(C(c2ccc(OCC3CO3)cc2)c2ccc(OCC3CO3)cc2)ccc1OCC1CO1 (centres unmarked) [2,2′,2″-[Methanetriyltris(benzene-4,1-diyloxymethanediyl)]trioxirane] | 0
9 | Oc1c(Br)cc(Br)cc1Br [2,4,6-Tribromophenol] | 1
10 | CC=CC=CCOC(=O)C(C)C [2,4-Hexadienyl isobutyrate] | 0
11 | CCC(C)(C)c1cc(O)c(C(C)(C)CC)cc1O [2,5-Bis(2-methylbutan-2-yl)benzene-1,4-diol] | 1
12 | CC(C)(C)c1cc(O)c(C(C)(C)C)cc1O [2,5-Di-tert-butylbenzene-1,4-diol] | 1
13 | CC(C)(C)c1cc([N+](=O)[O-])cc(C(C)(C)C)c1O [2,6-Di-tert-butyl-4-nitrophenol] | 1
14 | C=CC(=O)OCCOCCOCC [2-(2-Ethoxyethoxy)ethyl prop-2-enoate] | 0
15 | Cl.ClCc1ccccn1 [2-(Chloromethyl)pyridine hydrochloride] | 0
16 | Oc1ccc(-c2ccccc2)cc1Cl [2-Chloro-4-phenylphenol] | 1
17 | O=C(CCl)Nc1ccccc1 [2-Chloro-N-phenylacetamide] | 0
18 | O=C(CCl)c1ccccc1 [2-Chloroacetophenone] | 0*
19 | C=CC(=O)OCCC#N [2-Cyanoethyl prop-2-enoate] | 0
20 | C=CC(=O)OCCO [2-Hydroxyethyl acrylate] | 0*
21 | COc1cc(C)ccc1O [2-Methoxy-4-methylphenol] | 0
22 | COc1ccc(O)c(C(C)(C)C)c1 [2-tert-Butyl-4-methoxyphenol] | 1

Row | SMILES | MMP assay hitCall
23 | N#Cc1nc(Cl)c(Cl)c(Cl)c1Cl [3,4,5,6-Tetrachloro-2-pyridinecarbonitrile] | 1
24 | CC(C)=CCCC(C)=CC=O [3,7-Dimethyl-2,6-octadienal] | 0
25 | Cl.ClCc1cccnc1 [3-(Chloromethyl)pyridine hydrochloride] | 0
26 | Oc1ccc2c(c1)-c1ccccc1C2 [3-Hydroxyfluorene] | 1
27 | CC(C)CC(C)(c1ccc(O)cc1)c1ccc(O)cc1 [4,4′-(4-Methylpentane-2,2-diyl)diphenol] | 1
28 | Cl.Nc1ccc(-c2ccccc2)cc1 [4-Biphenylamine hydrochloride] | 0
29 | C=Cc1ccc(OC(C)=O)cc1 [4-Ethenylphenyl acetate] | 0
30 | CCCCCCc1ccc(O)cc1O [4-Hexylresorcinol] | 1
31 | CCCCCCCCCc1ccc(O)cc1 [4-Nonylphenol] | 1
32 | CCCc1ccc(O)cc1 [4-Propylphenol] | 1
33 | CCc1cccc(CC)c1N(COC)C(=O)CCl [Alachlor] | 0*
34 | C=CCC1=C(C)C(OC(=O)C2C(C=C(C)C)C2(C)C)CC1=O (centres unmarked) [Allethrin] | 1
35 | Clc1nc(Cl)nc(Nc2ccccc2Cl)n1 [Anilazine] | 0
36 | CNC(=O)Oc1cccc2c1OC(C)(C)O2 [Bendiocarb] | 0
37 | CCCCN(CC)c1c([N+](=O)[O-])cc(C(F)(F)F)cc1[N+](=O)[O-] [Benfluralin] | 0
38 | CC1COc2ccccc2N1C(=O)C(Cl)Cl (centres unmarked) [Benoxacor] | 0
39 | CCCCCCCCCCCC[N+](C)(C)Cc1ccccc1.[Cl-] [Benzyldimethyldodecylammonium chloride] | 1
40 | O=c1[nH]c2ccc([S+]([O-])CCN3CCC(Cc4ccc(F)cc4)CC3)cc2o1 (centres unmarked) [Besonprodil] | 0
41 | COc1ccc(-c2ccccc2)cc1NNC(=O)OC(C)C [Bifenazate] | 1
42 | CCC(C)c1cc([N+](=O)[O-])cc([N+](=O)[O-])c1OC(=O)C=C(C)C (centres unmarked) [Binapacryl] | 1
43 | c1cc(OCC2CO2)ccc1Cc1ccc(OCC2CO2)cc1 (centres unmarked) [Bis[4-(glycidyloxy)phenyl]methane] | 0
44 | CC(C)(c1ccc(O)cc1)c1ccc(O)cc1 [Bisphenol A] | 1

Row | SMILES | MMP assay hitCall
45 | Oc1c(Cl)cc(Cl)cc1Sc1cc(Cl)cc(Cl)c1O [Bithionol, reference compound] | 1
46 | N#Cc1cc(Br)c(O)c(Br)c1 [Bromoxynil] | 1
47 | CCC(C)Nc1c([N+](=O)[O-])cc(C(C)(C)C)cc1[N+](=O)[O-] (centres unmarked) [Butralin] | 0
48 | CCOP(=S)(OCC)OC(Cl)C(Cl)(Cl)Cl (centres unmarked) [Chlorethoxyfos] | 1
49 | CCOCn1c(-c2ccc(Cl)cc2)c(C#N)c(Br)c1C(F)(F)F [Chlorfenapyr] | 1
50 | Oc1ccc(Cl)cc1Cc1ccccc1 [Clorophene] | 1
51 | Cc1ccc(-c2c(Cl)nc(C#N)n2S(=O)(=O)N(C)C)cc1 [Cyazofamid] | 1
52 | Cc1cc(C2CC2)nc(Nc2ccccc2)n1 [Cyprodinil] | 0
53 | CC(=O)O[C@]1(C(C)=O)CC[C@H]2[C@@H]3C=C(Cl)C4=CC(=O)[C@@H]5C[C@@H]5[C@]4(C)[C@H]3CC[C@@]21C [Cyproterone acetate, reference compound] | 1
54 | CN1CSC(=S)N(C)C1 [Dazomet] | 0
55 | CCOC(=O)Nc1cccc(OC(=O)Nc2ccccc2)c1 [Desmedipham] | 1
56 | CCCCOC(=O)c1ccccc1C(=O)OCCCC [Dibutyl phthalate] | 0*
57 | COP(=O)(OC)OC=C(Cl)Cl [Dichlorvos] | 0*
58 | O=C(OC1CCCCC1)c1ccccc1C(=O)OC1CCCCC1 [Dicyclohexyl phthalate] | 1
59 | C(=NC1CCCCC1)=NC1CCCCC1 [Dicyclohexylcarbodiimide] | 0*
60 | CCCCCCCCCC[N+](C)(C)CCCCCCCCCC.[Cl-] [Didecyldimethylammonium chloride] | 1
61 | CCOC(=O)/C=C\C(=O)OCC [Diethyl maleate] | 0*
62 | CC1COC(Cn2cncn2)(c2ccc(Oc3ccc(Cl)cc3)cc2Cl)O1 (centres unmarked) [Difenoconazole] | 1
63 | COc1ccc(C(=CC(=O)N2CCOCC2)c2ccc(Cl)cc2)cc1OC [Dimethomorph] | 0
64 | COC(=O)/C=C\C(=O)OC [Dimethyl maleate] | 0
65 | CCC(C)c1cc([N+](=O)[O-])cc([N+](=O)[O-])c1O (centres unmarked) [Dinoseb] | 1
66 | c1ccc(Nc2ccccc2)cc1 [Diphenylamine] | 1

Row | SMILES | MMP assay hitCall
67 | C=CCOC(=O)/C=C\C(=O)OCC=C [Diprop-2-en-1-yl (2Z)-but-2-enedioate] | 0
68 | CCCCCCCCCCCC[N+](C)(C)C.[Br-] [Dodecyltrimethylammonium bromide] | 1
69 | CCCCCCCCCCCC[N+](C)(C)C.[Cl-] [Dodecyltrimethylammonium chloride] | 0*
70 | CN1CCN(c2ccccc2/C=C2\SCCN(c3ccc(Cl)c(Cl)c3)C2=O)CC1 [Elzasonan] | 0
71 | CCOC1Oc2ccc(OS(C)(=O)=O)cc2C1(C)C (centres unmarked) [Ethofumesate] | 0
72 | CCOc1cc(C(C)(C)C)ccc1C1COC(c2c(F)cccc2F)=N1 (centres unmarked) [Etoxazole] | 1
73 | C=CCc1ccc(O)c(OC)c1 [Eugenol] | 0*
74 | C=CCc1ccc(OC(=O)Cc2ccccc2)c(OC)c1 [Eugenyl phenylacetate] | 0
75 | CSC1=N[C@@](C)(c2ccccc2)C(=O)N1Nc1ccccc1 [Fenamidone] | 1
76 | CC(C)(C)c1ccc(CCOc2ncnc3ccccc23)cc1 [Fenazaquin] | 0*
77 | COP(=S)(OC)Oc1ccc([N+](=O)[O-])c(C)c1 [Fenitrothion] | 0*
78 | CCOC(=O)NCCOc1ccc(Oc2ccccc2)cc1 [Fenoxycarb] | 0*
79 | N#Cc1nn(-c2c(Cl)cc(C(F)(F)F)cc2Cl)c(N)c1[S+]([O-])C(F)(F)F (centres unmarked) [Fipronil] | 1
80 | CC(C)N(C(=O)COc1nnc(C(F)(F)F)s1)c1ccc(F)cc1 [Flufenacet] | 0
81 | C#CCN1C(=O)COc2cc(F)c(N3C(=O)C4=C(CCCC4)C3=O)cc21 [Flumioxazin] | 0
82 | O=C(Nc1cccc(C(F)(F)F)c1)c1cc(Br)cc(Br)c1O [Fluorosalan] | 1
83 | CO/N=C(/C1=NOCCO1)c1ccccc1Oc1ncnc(Oc2ccccc2Cl)c1F [Fluoxastrobin] | 1
84 | C[Si](Cn1cncn1)(c1ccc(F)cc1)c1ccc(F)cc1 [Flusilazole] | 1
85 | CC(C)Oc1cccc(NC(=O)c2ccccc2C(F)(F)F)c1 [Flutolanil] | 1
86 | O=C(Nc1ccccc1)Nc1ccnc(Cl)c1 [Forchlorfenuron] | 1

Same assay, conditions: cited from earlier work

Row | SMILES | MMP assay hitCall
87 | Nc1ccc(-c2ccc(N)c(N)c2)cc1N [3,3′-Diaminobenzidine] | 1
88 | Nc1ccc(N=Nc2ccccc2)cc1 [4-Aminoazobenzene] | 0
89 | CCN(CC)c1ccc2c(C)cc(=O)oc2c1 [7-Diethylamino-4-methylcoumarin] | 1
90 | Oc1cccc2cccnc12 [8-Hydroxyquinoline] | 0
91 | Oc1ccc(C(c2ccc(O)cc2)(C(F)(F)F)C(F)(F)F)cc1 [Bisphenol AF] | 1
92 | CN(C)NC(=O)CCC(=O)O [Daminozide] | 0
